Patent publication US20130241815A1, “INK CONTAINING ANTHRAQUINONE BASED DYE, DYE USED IN THE INK, AND DISPLAY” (MITSUBISHI CHEMICAL CORPORATION, priority 2010, published 2013)

Tests used:
Type in all cases: physicochemical
[1] = Preparation of ink and evaluation of solubility in low polar solvents (saturated solution, absorption maximum, εC); details: for Solubility: saturated solution, room temperature
Procedure: Each of Illustrative Compounds 1 to 4 and Comparative Compounds 1, 2 and 4 was dissolved in each of the solvents of n-decane, tetradecane, ISOPAR M, and ISOPAR G, thereby preparing an ink. On that occasion, the solubility of each of the compounds in each of the solvents was measured in the following manner.
Each of the compounds (dyes) was added to each of the solvents until a dissolution residue was generated, and the contents were ultrasonically treated at a water temperature of 30° C. for 30 minutes. After standing at room temperature for 12 hours, the resultant was subjected to centrifugal filtration with a 0.1 μm filter by using an ultrasmall-sized centrifuge (centrifugal force: 5,200×g). Each of the obtained saturated solutions was diluted with an appropriate concentration, a solubility of each of the dyes was calculated from a relation with a previously measured absorption coefficient, and a product ∈C (cm^−1) of a molar absorption coefficient ∈ (L mole^−1 cm^−1) at the absorption maximum wavelength and a concentration C (mole L^−1) of the saturated solution was determined.

[2] = Light resistance test (residual rate of dye after 2 h irradiation, 400 W high pressure mercury vapor lamp); details: 1 mg dye in 200 mL, 10 to 30° C.
Procedure: The light resistance of each of the compounds (dyes) was measured in the following manner.
1 mg of each of the compounds (dyes) was dissolved in 200 mL of each of the low polar solvents within a container, thereby preparing an ink. This ink was irradiated with light for 2 hours by using a photoreactor UVL-400HA (400 W high pressure mercury vapor lamp), manufactured by Riko Kagaku Sangyo K.K. During that interval, the container was cooled with a coolant, thereby keeping an internal temperature at from 10 to 30° C. A residual rate of the dye was determined by calculation according to the following expression, thereby evaluating the light resistance.
Residual rate=(Absorbance at the maximum absorption wavelength after irradiation)/(Absorbance at the maximum absorption wavelength before irradiation)

[3] = Preparation of ink and evaluation of solubility in low polar solvents (saturated solution, absorption maximum, εC); details: for Absorption maximum wavelength: Decalin solution; for Solubility: Decalin, saturated solution, room temperature

Row | Structure (SMILES) | Absorption maximum wavelength ([1]; ISOPAR G solution) | εC ([1]; ISOPAR G solution) | Solubility ([1]; ISOPAR G) | Absorption maximum wavelength ([1]; ISOPAR M solution) | εC ([1]; ISOPAR M solution) | Solubility ([1]; ISOPAR M) | Absorption maximum wavelength ([1]; Tetradecane solution) | εC ([1]; Tetradecane solution) | Solubility ([1]; Tetradecane) | Absorption maximum wavelength ([1]; n-Decane solution) | εC (molar absorption coefficient at absorption maximum x concentration of saturated solution) ([1]; n-Decane solution) | Solubility ([1]; n-Decane) | Residual rate after light resistance test ([2]; ISOPAR G) [%] | Residual rate after light resistance test ([2]; ISOPAR M) [%] | Residual rate after light resistance test ([2]; Tetradecane) [%] | Residual rate after light resistance test ([2]; n-Decane) [%] | εC ([1]; Decalin solution) [cm⁻¹] | Absorption maximum wavelength [3] [nm] | Solubility [3] [% by mass]
1 | CNc1ccc(Nc2ccc(C)cc2)c2c1C(=O)c1ccccc1C2=O [Comparative Compound 1, C.I. Solvent Blue 11, reference compound] | 594 nm | 7 cm⁻¹ | 0.02 % by mass | 594 nm | 7 cm⁻¹ | 0.02 % by mass | 595 nm | 12 cm⁻¹ | 0.04 % by mass | Unmeasurable | Low | Low | – | – | – | – | 26 | 636 | 0.07
2 | CCCCC(CC)CNc1ccc(NCC(CC)CCCC)c2c1C(=O)c1ccccc1C2=O (stereo not drawn) [Illustrative Compound 1] | 649 nm | 1900 cm⁻¹ | 7.3 % by mass | 650 nm | 1200 cm⁻¹ | 4.2 % by mass | 651 nm | 1600 cm⁻¹ | 5.7 % by mass | 650 nm | 2000 cm⁻¹ | 6.6 % by mass | – | – | – | – | 3400 | 645 | 9.98
3 | CC(C)CNc1ccc(Nc2ccccc2)c2c1C(=O)c1ccccc1C2=O [Comparative Compound 2, reference compound] | – | – | – | – | – | – | – | – | – | 614 nm | 200 cm⁻¹ | 0.7 % by mass | – | – | – | – | – | – | –
4 | CCCCN(CCCC)c1ccc(N=Nc2nc(C#N)c(C#N)n2CC#N)c(NC(C)=O)c1 [Comparative Compound 3, reference compound] | – | – | – | – | – | – | – | – | – | – | – | – | – | – | – | 45 | – | – | –
5 | C=CCn1c(N=Nc2ccc(N(CCC)CCC)cc2NC(C)=O)nc(C#N)c1C#N [Comparative Compound 4, reference compound] | Unmeasurable | Low | Low | Unmeasurable | Low | Low | Unmeasurable | Low | Low | Unmeasurable | Low | Low | – | – | – | – | 7 | 520 | 0.01

Now from value to compound:

Row | Absorption maximum wavelength ([1]; ISOPAR G solution) | εC ([1]; ISOPAR G solution) | Solubility ([1]; ISOPAR G) | Absorption maximum wavelength ([1]; ISOPAR M solution) | εC ([1]; ISOPAR M solution) | Solubility ([1]; ISOPAR M) | Absorption maximum wavelength ([1]; Tetradecane solution) | εC ([1]; Tetradecane solution) | Solubility ([1]; Tetradecane) | Absorption maximum wavelength ([1]; n-Decane solution) | εC (molar absorption coefficient at absorption maximum x concentration of saturated solution) ([1]; n-Decane solution) | Solubility ([1]; n-Decane) | Residual rate after light resistance test ([2]; ISOPAR G) [%] | Residual rate after light resistance test ([2]; ISOPAR M) [%] | Residual rate after light resistance test ([2]; Tetradecane) [%] | Residual rate after light resistance test ([2]; n-Decane) [%] | εC ([1]; Decalin solution) [cm⁻¹] | Absorption maximum wavelength [3] [nm] | Solubility [3] [% by mass] | Structure (SMILES)
6 | 666 nm | 1400 cm⁻¹ | 5.5 % by mass | 667 nm | 1200 cm⁻¹ | 4.5 % by mass | 668 nm | 1300 cm⁻¹ | 4.9 % by mass | 668 nm | 2400 cm⁻¹ | 9.5 % by mass | 95 | 99 | 93 | 97 | – | – | – | CCCCC(CC)CNc1ccc(NCC(CC)CCCC)c2c1C(=O)c1ccc(C(=O)OCCC)cc1C2=O (stereo not drawn) [Illustrative Compound 4]
7 | 667 nm | 2700 cm⁻¹ | 10.8 % by mass | 668 nm | 1400 cm⁻¹ | 5.1 % by mass | 668 nm | 1200 cm⁻¹ | 4.7 % by mass | 668 nm | 1900 cm⁻¹ | 7.5 % by mass | 88 | 77 | 94 | 78 | 3100 | 662 | 10.0 | CCCCC(CC)CNc1ccc(NCC(CC)CCCC)c2c1C(=O)c1ccc(C(=O)OCC(C)C)cc1C2=O (stereo not drawn) [Illustrative Compound 3]
8 | – | – | – | – | – | – | – | – | – | 668 nm | 1000 cm⁻¹ | 4.7 % by mass | – | – | – | – | – | – | – | CCCCC(CC)CNc1ccc(NCC(CC)CCCC)c2c1C(=O)c1ccc(C(=O)OCC)cc1C2=O (stereo not drawn) [Illustrative Compound 2]
